Reference: US12162878B2 (HINOVA PHARMACEUTICALS INC., priority 2018, dated 2024)

How the values were obtained:
Format in all cases: cell-based, human
[1] = test system: CWR22RV1 cells; assay: Inhibition of proliferation of CWR22RV1 cells (CCK-8); details: Homo sapiens, CWR22Rv1, 144 h, 6 days
Summary of the method: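 Cells seeded at 1500/well, cultured overnight, then exposed to compounds in 3-fold dilutions (9 concentrations from 10 μM top final, 0.1% DMSO) for 6 days at 37 °C. Viability read by CCK-8 absorbance at 450 nm after 2.5 h; IC50 from dose-response inhibition fit.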

[2] = test system: MCF-7 cells; assay: Inhibition of proliferation of MCF-7 cells (CCK-8)
Experimental: (§1) • MCF-7 cell line (Cell Bank of Chinese Academy of Sciences, TCHu74) • FBS (Gibco, Cat. No. 10099-141) • 0.01M PBS (Biosharp, Cat. No. 162262) • RIPM1640 (Hyclone, Cat. No. 308090.01) • Penicillin-Streptomycin (Hyclone, Cat. No. SV30010) • Cell counting kit-8 (Signalway Antibody, Cat. No. CP002) • DMSO (Sigma, Cat. No. D5879) • Centrifuge Tube, 15 ml (Excell Bio, Cat. No. CS015-0001) • Cell Culture Dish, (Excell Bio, Cat. No. CS016-0128) • 96-well cell culture cluster (Corning, Cat. No. 3599) 3. Experimental Method
1) MCF-7 cells were subcultured in cell culture media, and the cells in good growth condition were seeded in a 96-well plate, 80 μL for each well, thus the number of cells per well was 1000, then the plate was cultured overnight in a 37° C., 5% CO2 cell incubator.
(§2) 2) The drug was prepared with dimethyl sulfoxide (DMSO) as a 10 mM stock solution. Prior to use, the solution was diluted 3 times with DMSO, and then diluted with a 3-fold gradient to obtain 9 concentration gradients. Then, each concentration of the compound was further diluted 200 times with the culture media (to ensure that DMSO concentration in the culture system was 0.1%), 2 repeat wells for each concentration. The diluted solution of each compound (20 μL) was added to the cell culture well (with a final concentration of 10 μM, 3.3 μM, 1.1 μM . . . ), and shaken gently for mixing.
In addition, three negative control wells containing only cells and three blank control wells containing only culture medium (20 μL DMSO diluted 200 times with culture medium being added to six wells) were included.
(§3) (1) After culturing for 6 days, 10 μL CCK-8 was added to each well and cultured for additional 2.5 h in a 37° C., 5% CO2 cell incubator.
(§4) (2) The absorbance (OD value) at 450 nm was measured with a multifunctional microplate reader.
(§5) (3) The data was analyzed by the Dose-response-inhibition equation in the software GraphPad Prism6, and the IC50 value was obtained.

[3] = test system: MDA-MB-231 cells; assay: Inhibition of proliferation of MDA-MB-231 cells (CCK-8)
Experimental: as §1, with “MDA-MB-231” for “MCF-7”, “TCHu104)” for “TCHu74)”
1) MDA-MB-231 cells were subcultured in cell culture media, and the cells in good growth condition were seeded in a 96-well plate, 80 μL for each well, thus the number of cells per well was 1500, then the plate was cultured overnight in a 37° C., 5% CO2 cell incubator.
as §2, with “mixing. In addition, three negative control wells containing only cells and three blank control wells containing only culture medium (20 μL DMSO diluted 200 times with culture medium being added to six wells) were included.” for “mixing.”
as §3, §4, §5

[4] = test system: MDA-MB-453 cells; assay: Inhibition of proliferation of MDA-MB-453 cells (CCK-8); details: Homo sapiens, 144 h, 6 days, CCK-8
Experimental: as §1, with “MDA-MB-453” for “MCF-7”, “TCHu35)” for “TCHu74)”
1) MDA-MB-453 cells were subcultured in cell culture media, and the cells in good growth condition were seeded in a 96-well plate, 80 μL for each well, thus the number of cells per well was 1500, then the plate was cultured overnight in a 37° C., 5% CO2 cell incubator.
as §2, with “mixing. In addition, three negative control wells containing only cells and three blank control wells containing only culture medium (20 μL DMSO diluted 200 times with culture medium being added to six wells) were included.” for “mixing.”
as §3, §4, §5

[5] = test system: Vcap cells; assay: Inhibition of proliferation of Vcap cells (CCK-8)
Experimental: as §1, with “Vcap” for “MCF-7”, “TCHu220)” for “TCHu74)”, “DMEM HIGH Glucose” for “RIPM1640”, “SH30243.01)” for “308090.01)”, “2.” for “3.”
1) Vcap cells were subcultured in cell culture media, and the cells in good growth condition were seeded in a 96-well plate, 80 μL for each well, thus the number of cells per well was 10000, then the plate was cultured overnight in a 37° C., 5% CO2 cell incubator.
as §2, with “mixing. In addition, three negative control wells containing only cells and three blank control wells containing only culture medium (20 μL DMSO diluted 200 times with culture medium being added to six wells) were included.” for “mixing.”
as §3, §4, §5

[6] = test system: CWR22RV1 cells; assay: Compound in combination with androgen receptor inhibitor HC-1119, proliferation of CWR22RV1 cells (CCK-8); details: for IC50: Homo sapiens, CWR22Rv1, 144 h, 6 days, read-out: IC50 for inhibition on the activity of CWR22RV1
Experimental: as §1, with “CWR22RV1” for “MCF-7”, “TCHu100)” for “TCHu74)”, “3599)” for “3599) 3.”, “Method:” for “Method”
1) CWR22RV1 cells were subcultured in cell culture media, and the cells in good growth condition were seeded in a 96-well plate, 60 μL for each well, thus the number of cells per well was 2000, then the plate was cultured overnight in a 37° C., 5% CO2 cell incubator.
(§6) 2) The drug was prepared with dimethyl sulfoxide (DMSO) as a 10 mM stock solution. Prior to use, the solution was diluted 3 times with DMSO, and then diluted with a 3-fold gradient to obtain 9 concentration gradients. Then, each concentration of the compound was further diluted 200 times with the culture media (to ensure that DMSO concentration in the culture system was 0.1%), 2 repeat wells for each concentration. The diluted solution of each compound (20 μL) was added to the cell culture well (with a final concentration of 10 μM, 3.3 μM, 1.1 μM . . . ); while the solution of HC-1119 was diluted with culture media to the concentrations of 50 μM and 15 μM, respectively, and the diluted solution of HC-1119 was added to the corresponding cell culture well (with a final concentration of 10 μM, 3 μM), then shaken gently for mixing. In addition, three negative control wells containing only cells and three blank control wells containing only culture media (20 μL DMSO diluted 200 times with culture media being added to six wells) were included.
as §3, §4, §5

[7] = test system: Vcap cells; assay: Compound in combination with androgen receptor inhibitor HC-1119, proliferation of Vcap cells (CCK-8); details: for IC50: Homo sapiens, VCaP, 144 h, 6 days, read-out: IC50 for inhibition on the activity of Vcap
Experimental: as §1, with “Vcap” for “MCF-7”, “TCHu220)” for “TCHu74)”, “DMEM HIGH Glucose” for “RIPM1640”, “SH30243.01)” for “308090.01)”, “Dish” for “Dish,”, “2.” for “3.”
1) Vcap cells were subcultured in cell culture media, and the cells in good growth condition were seeded in a 96-well plate, 60 μL for each well, thus the number of cells per well was 10000, then the plate was cultured overnight in a 37° C., 5% CO2 cell incubator.
as §6, with “10 μM, 1 μM), then” for “10 μM, 3 μM), then”
as §3, §4, §5

[8] = Homo sapiens, 144 h, 6 days, CCK-8

Cn1cc(-c2cc(S(C)(=O)=O)ccc2N2CCC3(CC2)CC3(F)F)c2cc[nH]c2c1=O [Compound 178, 4-(2-(1,1-difluoro-6-aza-spiro[2.5]octan-6-yl)-5-(methylsulfonyl)phenyl)-6-methyl-1H-pyrrolo[2,3-c]pyridin-7(6H)-one]
IC50 [1]: 5 nM | inhibitory action on MCF-7 cells (in words) [2]: effective inhibitory action | IC50 ([2]; Homo sapiens, MCF7, 144 h, 6 days, CCK-8): 29 nM | inhibitory action on MDA-MB-231 cells (in words) [3]: effective inhibitory action | IC50 [3, 8]: 39 nM | IC50 [4]: 720 nM

[2H]C([2H])([2H])n1cc(-c2cc(S(=O)(=O)CC)ccc2N2CCC3(CC2)CC3(F)F)c2cc[nH]c2c1=O [Compound 231, 4-(2-(1,1-difluoro-6-aza-spiro[2.5]octan-6-yl)-5-(ethylsulfonyl)phenyl)-6-trideuteromethyl-1H-pyrrolo[2,3-c]pyridin-7(6H)-one]
inhibitory action on Vcap cells (in words) [5]: effective inhibitory action | IC50 [5, 8]: 3.9 nM | IC50 ([6]; compound alone, CWR22RV1 cells): 1.8 nM | IC50 ([6]; in combination with 3 μM HC-1119, CWR22RV1 cells): 0.65 nM | IC50 ([6]; in combination with 10 μM HC-1119, CWR22RV1 cells): 0.51 nM | effect of combination with HC-1119 on inhibitory action on CWR22RV1 cells (in words) ([6]; in combination with HC-1119, CWR22RV1 cells): improve the inhibitory action | IC50 ([7]; compound alone, Vcap cells): 3.9 nM | IC50 ([7]; in combination with 1 μM HC-1119, Vcap cells): 0.076 nM | IC50 ([7]; in combination with 10 μM HC-1119, Vcap cells): 0.027 nM | effect of combination with HC-1119 on inhibitory action on Vcap cells (in words) ([7]; in combination with HC-1119, Vcap cells): improve the inhibitory action
